We go through four compounds from ChEMBL document CHEMBL1153942, “Design and efficient synthesis of novel ascorbyl conjugated peptide with high collagen biosynthesis stimulating effects” (Bioorg Med Chem Lett, 2009).

Data set [1] relates to HDF. Description: Stimulation of collagen biosynthesis in primary cultured neonatal HDF at 1 to 1000 uM after 72 hrs by ELISA in presence of fetal bovine serum. As to conditions: Homo sapiens. It counts as functional, cell-based.
Data set [2] is described as follows: Stability in rat skin homogenates. It is filed as ADME, tissue-based, Zone of skin. As to conditions: read-out: Stability.
Data set [3] is described as follows: Stability in rat skin homogenates assessed as compound remain after 6 hrs. As to conditions: read-out: Stability. It counts as ADME, tissue-based, Zone of skin.
Data set [4] in a line: Cytotoxicity against HDF at >100 uM. It is filed as cell-based. As to conditions: human.
For data set [5], the system named is HDF. Description: Stimulation of collagen biosynthesis in primary cultured neonatal HDF at 100 uM after 72 hrs by ELISA in presence of fetal bovine serum. It is filed as functional, cell-based. As to conditions: Homo sapiens. Background: An ELISA detects its analyte on a solid surface through an enzyme-linked reagent.

Active and inactive are the calls of the source. No cut-off for these calls is given here. Residues, ends and D or L forms follow the SMILES beside them. *: point of attachment. X1 = O=C(CCC(=O)*)OCC(O)C1OC(=O)C(O)=C1O; Palmitoyl = CCCCCCCCCCCCCCCC(=O)* Bounds are passed on as bounds.

With H-KTTKS-OH, the result in the data set with HDF [1] was inactive. Still for that read-out and setting: as for `O=C1O[C@H]([C@@H](O)CO)C(O)=C1O`, the entry is “inactive”. Turning to `C[C@@H](O)[C@H](NC(=O)[C@H](CCCCN)NC(=O)CCC(=O)OCC(O)C1OC(=O)C(O)=C1O)C(=O)N[C@H](C(=O)N[C@@H](CCCCN)C(=O)N[C@@H](CO)C(=O)O)[C@@H](C)O` (some centres not stated) (X1-KTTKS-OH), in the data set with HDF [1], the outcome was Active. In addition, the half-life in data set [2] is > 6 h. Moreover, in data set [3], the remaining at 6 h is < 10%. Consider `CCCCCCCCCCCCCCCC(=O)N[C@@H](CCCCN)C(=O)N[C@H](C(=O)N[C@H](C(=O)N[C@@H](CCCCN)C(=O)N[C@@H](CO)C(=O)O)[C@@H](C)O)[C@@H](C)O` (Palmitoyl-KTTKS-OH), for which, in data set [4], the result was Active. The result with HDF [5] was Active.
